# Source: US5561112A, “Pseudopeptide isosteres of gly-asp and their use as antithrombic agents” (Sandoz Ltd., priority 1992, dated 1996)
# Like-named read-outs stand apart in the source and are kept apart here.
# Legend:
# GP IIb/IIIa = molecular target: T1, GP IIb/IIIa (Homo sapiens, UniProt P05106+P08514); experiment: Inhibition of binding of fibrinogen to isolated and immobilized GP IIb/IIIa (FB); conditions: biotin-labelled fibrinogen; GP IIb/IIIa isolated from human blood platelet membranes, bonded to microtitre plates; read-out: FB: IC50 (inhibition of the fibrinogen GPIIb/IIIa binding)
# T1 construct: GP IIb/IIIa is isolated from membranes of human blood platelets by triton X-100 extraction; from tissue; host or cells: human blood platelets (membranes)
# T1 sequence (P08514 32-887 limits assumed): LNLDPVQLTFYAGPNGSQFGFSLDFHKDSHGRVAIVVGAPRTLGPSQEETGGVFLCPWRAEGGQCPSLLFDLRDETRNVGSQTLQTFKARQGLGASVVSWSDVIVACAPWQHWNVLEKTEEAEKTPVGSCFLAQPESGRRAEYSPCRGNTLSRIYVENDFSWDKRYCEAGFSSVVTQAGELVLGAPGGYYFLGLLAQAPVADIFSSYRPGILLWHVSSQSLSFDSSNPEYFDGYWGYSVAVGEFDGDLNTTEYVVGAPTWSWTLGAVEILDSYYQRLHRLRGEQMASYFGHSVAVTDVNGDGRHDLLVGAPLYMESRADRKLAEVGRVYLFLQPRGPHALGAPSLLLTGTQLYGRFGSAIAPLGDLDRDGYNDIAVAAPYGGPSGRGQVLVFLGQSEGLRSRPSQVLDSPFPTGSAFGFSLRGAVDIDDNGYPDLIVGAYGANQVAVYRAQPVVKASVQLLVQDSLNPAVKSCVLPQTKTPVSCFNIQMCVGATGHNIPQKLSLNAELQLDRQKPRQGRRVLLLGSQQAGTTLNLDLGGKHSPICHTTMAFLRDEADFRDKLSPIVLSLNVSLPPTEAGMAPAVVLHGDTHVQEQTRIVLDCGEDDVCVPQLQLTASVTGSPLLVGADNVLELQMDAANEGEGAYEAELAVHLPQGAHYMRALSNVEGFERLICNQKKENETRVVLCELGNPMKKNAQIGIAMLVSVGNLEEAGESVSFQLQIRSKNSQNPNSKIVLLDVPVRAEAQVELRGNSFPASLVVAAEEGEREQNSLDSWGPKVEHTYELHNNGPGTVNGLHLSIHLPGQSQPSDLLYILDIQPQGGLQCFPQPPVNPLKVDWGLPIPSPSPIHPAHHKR
# T1 sequence (P05106 27-788): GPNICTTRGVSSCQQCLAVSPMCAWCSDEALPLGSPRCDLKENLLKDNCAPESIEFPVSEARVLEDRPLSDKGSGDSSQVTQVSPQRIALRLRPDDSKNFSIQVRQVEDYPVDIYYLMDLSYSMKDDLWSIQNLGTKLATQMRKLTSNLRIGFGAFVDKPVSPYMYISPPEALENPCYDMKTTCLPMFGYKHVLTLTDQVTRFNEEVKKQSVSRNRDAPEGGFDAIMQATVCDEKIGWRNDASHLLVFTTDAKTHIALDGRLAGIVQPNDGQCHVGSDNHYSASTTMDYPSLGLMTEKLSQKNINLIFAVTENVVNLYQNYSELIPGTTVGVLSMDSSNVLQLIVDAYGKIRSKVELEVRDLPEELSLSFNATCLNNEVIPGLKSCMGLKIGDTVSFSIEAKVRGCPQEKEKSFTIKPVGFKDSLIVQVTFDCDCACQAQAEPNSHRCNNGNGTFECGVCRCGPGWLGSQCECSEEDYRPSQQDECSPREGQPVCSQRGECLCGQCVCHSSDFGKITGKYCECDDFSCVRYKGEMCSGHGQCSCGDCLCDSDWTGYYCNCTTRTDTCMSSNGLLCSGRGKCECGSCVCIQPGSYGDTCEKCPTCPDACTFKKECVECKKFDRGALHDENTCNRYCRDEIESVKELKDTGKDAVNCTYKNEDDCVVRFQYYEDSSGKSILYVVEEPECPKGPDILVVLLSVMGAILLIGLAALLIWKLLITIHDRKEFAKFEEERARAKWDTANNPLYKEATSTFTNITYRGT
# From the text: a) Inhibition of binding of fibrinogen to isolated and immobilized GP IIb/IIIa: GP IIb/IIIa is isolated from membranes of human blood platelets by triton X-100 extraction and purified by chromatography on ion exchangers and by gel filtration. The receptor protein thus obtained is bonded to microtitre plates. The inhibition of the binding of biotin-labelled fibrinogen to the receptor in the presence of inhibitor is quantified.
# The compounds of formula I effect an inhibition of the fibrinogen GP IIb/IIIa binding in a range of IC50 (concentration of compounds of formula I which reduce the binding of fibrinogen to the receptor by 50%) of between 0.5 and 20 nM.
# (§1) The compounds of Examples 1 to 8 are tested to determine their IC50 values in the inhibition of the fibrinogen GPIIb/IIIa binding (FB) and inhibition of the ADP-induced platelet aggregation (PA) test procedures described above.
# human blood platelets = experiment: Inhibition of the ADP-induced aggregation of human blood platelets in the presence of fibrinogen (PA); assay type: cell-based; conditions: washed human platelets, stimulated with ADP in the presence of fibrinogen, aggregometer
# Description: b) Inhibition of the ADP-induced aggregation of human blood platelets in the presence of fibrinogen: Blood platelets are isolated from fresh whole-blood by centrifugation, and washed. The washed platelets are resuspended in the presence of PGI2 and apyrase and stimulated with ADP ([…]) in the presence of fibrinogen. The ability of the platelets to aggregate in the presence or absence of inhibitors is quantified using an aggregometer.
# The inhibition of the ADP-induced platelet aggregation is brought about by compounds of formula I in a range of IC50 (concentration of compounds of formula I at which 50% of platelet aggregation is inhibited) of between 20 and 100 nM.
# as §1
# [1] = read-out: PA: IC50 (inhibition of the ADP-induced platelet aggregation)
IC50 (GP IIb/IIIa),IC50 (human blood platelets; Platelet),IC50 (human blood platelets; [1]),Structure (SMILES)
0.5 nM,15 nM,,"CC(C)CC(=O)N[C@@H](CCCCNC(=O)c1ccc(C(=N)N)cc1)CC(=O)O [Example 6, (S)-3-(N-(3-methylbutyryl)amino]-7-[N-(p-amidinobenzoyl)amino]heptanoic acid]"
0.4 nM,61 nM,,"N=C(N)c1ccc(CC(=O)NCCC[C@@H](CC(=O)O)NC(=O)CCC23CC4CC(CC(C4)C2)C3)cc1 [Example 5, (S)-3-[N-(3-adamant-1-ylpropionyl)amino]-6-[N-(p-amidinophenylacetyl)amino]hexanoic acid]"
7.6 nM,640 nM,,"Cc1ccc(S(=O)(=O)N[C@@H](CCCNC(=O)Cc2ccc(C(=N)N)cc2)CC(=O)O)cc1 [Example 1, (S)-3-(N-tosylamino)-6-[N-(p-amidinophenylacetyl)amino]hexanoic acid]"
0.9 nM,,110 nM,"CC(C)CC(=O)N[C@@H]1CC(=O)O[C@H](CNC(=O)Cc2ccc(C(=N)N)cc2)C1 [Example 8, (3S,5S)-6-(4-amidino-phenylacetylamino)-5-hydroxy-3-(3-methyl-butyrylamino)-hexanoic acid-δ-lactone]"
2.2 nM,67 nM,,"N=C(N)c1ccc(CC(=O)NCCC[C@@H](CC(=O)O)NC(=O)CC23CC4CC(CC(C4)C2)C3)cc1 [Example 4, (S)-3-[N-(adamant-1-ylacetyl)amino]-6-[N-(p-amidinophenylacetyl)amino]hexanoic acid]"
1.7 nM,100 nM,,"CC(C)CC(=O)N[C@@H](CCCNC(=O)Cc1ccc(C(=N)N)cc1)CC(=O)O [Example 2, (S)-3-[N-(3-methylbutyryl)amino]-6-[N-(p-amidinophenylacetyl)amino]hexanoicacid]"
0.5 nM,,80 nM,"COc1ccc(CCC(=O)N[C@@H]2CC(=O)O[C@H](CNC(=O)Cc3ccc(C(=N)N)cc3)C2)cc1 [Example 7, (3S,5S)-6-(4-amidinophenylacetylamino)-5-hydroxy-3-(4-methoxyphenylpropionylamino)-hexanoic acid-δ-lactone]"
1.1 nM,,31 nM,"COc1ccc(CCC(=O)N[C@@H](CCCNC(=O)Cc2ccc(C(=N)N)cc2)CC(=O)O)cc1 [Example 3, (S)-3-N-[3-(p-methoxyphenyl)propionyl]amino-6-[N-(p-amidinophenylacetyl)amino]hexanoic acid]"
